This note sets out measurements from the NIST ThermoML archive (doi:10.1016/j.jct.2011.07.011).

The conditions of this series: Crystal; Heating/Cooling curves.

Each structure is given as a SMILES string. “And” between values parts separate entries of the source, which are not always exact repeats. Equal entries are not always repeated. Numbers after ± are expanded uncertainties.

With `[Ne]` [neon], the Triple point temperature is 24.54 ± 0.077 K and 24.69 ± 0.077 K.
